Tested on: Qurt medaka
Test: Detection of sexual differentiation-disrupting activity: eggs bred in test solution, genotypic sex by pigment, phenotypic sex by RT-PCR of female-specific Gene 5
Assay type: in vivo, medaka (Oryzias latipes)
Settings: fries hatched from eggs treated with 1 ppb 17 β-estradiol
Description: Pairs of mature Qurt medakas each consisting of one male and one female were bred in 3 L of green water (purified water containing chlorella from green algae) at 25° C. under conditions of a light period for 14 hours and a dark period for 10 hours. They were fed with TetraMin three to five times a day setting the amount of TetraMin such that it was consumed within three to five minutes,;and then spawned. Eggs resulted from five pairs were placed in a Petri dish immediately after spawning, separated each other using tweezers in tap water from which chlorine had been removed and washed. The water was replaced by a 1 -ppb 17 β-estradiol (E2) aqueous solution containing 0.1% dimethyl sulfoxide. The mixture was dispensed into wells of 96-well round bottom microplate (#3797, Corning) which had been extensively washed with ultrapure water such that each well contained one egg. After covering with a lid, the microplate was incubated in an incubator at 25° C. On the third day from the start of incubation, males and females were distinguished by examining the yellow pigment which is expressed in a male-specific manner as autofluorescence using a fluorescence microscope (Nikon) The incubation was further continued, and fries then hatched on the 7th to 9th day after spawning. Fries were collected on the 12th day after spawning (the 3rd to 5th day after hatching), then soaked in RNAlater (#7021, Ambion) and stored at −80° C. RNAs were extracted from the fries using StrataPrep Total RNA Miniprep Kit (#400711, Stratagene). The test samples were soaked in a lysis solution attached to the kit, and homogenized in 1.5 -mL tubes using a pellet mixer (Urin Seisakusho). Then, extraction was completed according to the manual attached to the kit. The extracted RNAs were subjected to TaKaRa One Step RNA PCR Kit (AMV) (Takara Shuzo). 1st PCRs were carried out using a pair of primers F1 (SEQ ID NO: 30) and R1 (SEQ ID NO: 31) which is used to amplify a region of 729 bp in Gene 5 (SEQ ID NO: 5), a gene expressed in a female-specific manner. […]

C[C@]12CC[C@@H]3c4ccc(O)cc4CC[C@H]3[C@@H]1CC[C@@H]2O [17 β-estradiol]
genotypic females for which expression of Gene 6 was not observed: two out of the five | genotypic males for which expression of Gene 5 was observed: two out of the five | sexual differentiation (genotypic vs phenotypic sex): the sexual differentiation was disrupted

Reference: patent US20030162187A1, “Method of detecting sexual differentiation disruptor” (priority 1999, published 2003)
